# Columns and labels:
# [1] = system: transcription control region for exon 1b of human aromatase gene; assay: Luciferase reporter assay, Ex1b-luc in HepG2 cell (expression of exon 1b of aromatase gene); assay type: cell-based; settings: added at 1%, 20 hours
# Description: The region containing transcription control region for exon 1b of human aromatase gene and a part of the exon 1b was amplified by PCR from genomic DNA extracted from human normal keratinocyte by using the following primers: […]
# The resulting PCR product was treated with restriction enzymes SpeI and EcoRI, and incorporated in SpeI site and EcoRI site in SeaPansy null Control Vector (Toyo Ink Mfg. Co., Ltd.) to produce Ex1b-luc plasmid. This plasmid was used in the luciferase assay as will be described below.
# Immortalized human hepatoma-derived cell (HepG2 cell) […]
# The transfected cells were cultivated overnight, and plant extract prepared in Production Example 1, Table 2, or yeast extract (“YeastLiquid B”, Ichimaru Pharcos Co Ltd.), silk protein extract (“Silkgen G Soluble KE”, Ichimaru Pharcos Co Ltd.), milk protein (“Bioderma SX-14” Ichimaru Pharcos Co Ltd.), “lactoferrin S FREE”, Ichimaru Pharcos Co Ltd.), natto extract (“Soybean polymer F B-20”, Ichimaru Pharcos Co Ltd.), or royal jelly (“royal jelly extract”, Ichimaru Pharcos Co Ltd.) was added (1% or 0.1%), and the cultivation was continued for another 20 hours. After adding 20 μL of alamarBlue (BIOSOURCE), fluorescence intensity (excitation light 544 nm, fluorescence 590 nm) was measured. Luciferase activity was also measured by using PicaGene Dual SeaPansy Luminescence kit (Nippon Gene). […]
# HepG2 cell = assay: alamarBlue fluorescence in Ex1b-luc transfected HepG2 cell; assay type: cell-based, human; settings: added at 1%, 20 hours
# Description: Immortalized human hepatoma-derived cell (HepG2 cell)
# HepG2 cell was inoculated to 96 well culture plate at 30,000 cells per well, and Ex1b-luc was introduced using lipofectamine reagent (Invitrogen) according to the protocol described in the attached manual. The DNA was used at an amount of 0.1 μg per well. The same procedure was repeated for control without adding the DNA (2 wells).
# The transfected cells were cultivated overnight, and plant extract prepared in Production Example 1, Table 2, or yeast extract (“YeastLiquid B”, Ichimaru Pharcos Co Ltd.), silk protein extract (“Silkgen G Soluble KE”, Ichimaru Pharcos Co Ltd.), milk protein (“Bioderma SX-14” Ichimaru Pharcos Co Ltd.), “lactoferrin S FREE”, Ichimaru Pharcos Co Ltd.), natto extract (“Soybean polymer F B-20”, Ichimaru Pharcos Co Ltd.), or royal jelly (“royal jelly extract”, Ichimaru Pharcos Co Ltd.) was added (1% or 0.1%), and the cultivation was continued for another 20 hours. After adding 20 μL of alamarBlue (BIOSOURCE), fluorescence intensity (excitation light 544 nm, fluorescence 590 nm) was measured. Luciferase activity was also measured by using PicaGene Dual SeaPansy Luminescence kit (Nippon Gene). The cells were lysed by adding 25 μL per well of the lysis buffer that had been diluted 5× lysis buffer to 1× concentration.
smiles,measurement,setting,value
"OC[C@H]1O[C@H](O[C@H]2O[C@H](CO)[C@@H](O)[C@H](O)[C@H]2O)[C@H](O)[C@@H](O)[C@@H]1O [Trehalose, trehalose]",Luciferase activity,[1],141.0%
same,AlamarBlue activity,HepG2 cell,113.9%

# From US7887851B2, “Aromatase activator” (Kao Corporation, priority 2004, dated 2011)
